Entries after “also recorded” stand apart in the source; their conditions may differ.
How the values were obtained:
Src = assay: Cortactin tyrosine phosphorylation in pancreatic acini suprastimulated with 10 nM CCK (immunoprecipitation, 4G10 western blot); format: cell-based, mice
Experimental: (§1) Acini were harvested in a buffer containing 20 mM HEPES (pH 7.4), 120 mM NaCl, 5 mM KCl, 1 mM MgCl2, 1 mM CaCl2, 10 mM glucose, 10 mM sodium pyruvate, 0.1% bovine serum albumin, and 0.01% soybean trypsin inhibitor with 100 units/mL collagenase, as described elsewhere (Torgerson and McNiven, J. […] Viability prior to use was >95% by trypan blue exclusion. The harvested acini were used as described elsewhere (Torgerson and McNiven, J. Cell Sci., 111 (Pt. 19):2911-22 (1998)).
(§2) Acini or tissue were homogenized in a buffer containing 50 mM Tris (pH 7.2), 150 mM NaCl, 0.5 mM EDTA, 1 mM EGTA, 2 mM DTT, 1 mM sodium orthovanadate, 25 mM NaF, and 1% NP-40, using a protease inhibitor cocktail (Complete; Cat. # 1873580; Roche) to prevent proteolysis. […] After Western blotting using appropriate protocols and dilutions of antibodies ( 1/100000 for AB3, 1/1000 for 4G10, 1/500 for SC-18, 1/1000 for PY416, 1/5000 for Yes, 1/200 for H-12 (c-Src), 1/200 for fyn, and 1/200 for Lyn) as recommended by the manufacturer, band intensity was quantified using Adobe Photoshop 6.0, and backgrounds were subtracted for the appropriate lanes. […] Quantification was performed from two or more experiments. […]

Src-cortactin complex = assay: Dissociation of the Src-cortactin complex after 10 nM CCK (Src immunoprecipitation, blot for cortactin); format: cell-based, mice; conditions: 2 minutes, PP2 pre-incubation
Experimental: Acini were harvested in a buffer containing 20 mM HEPES (pH 7.4), 120 mM NaCl, 5 mM KCl, 1 mM MgCl2, 1 mM CaCl2, 10 mM glucose, 10 mM sodium pyruvate, 0.1% bovine serum albumin, and 0.01% soybean trypsin inhibitor with 100 units/mL collagenase, as described elsewhere (Torgerson and McNiven, J. Cell Sci., 111 (Pt. 19):2911-22 (1998)) were filtered through a 70 μm mesh and kept at 37° C. for two hours before use during which time these were pre-incubated with 20 μM of inhibitors (PP2 or SU6656), if necessary. Viability prior to use was >95% by trypan blue exclusion. The harvested acini were used as described elsewhere (Torgerson and McNiven, J. Cell Sci., 111 (Pt. 19):2911-22 (1998)).
as §2

pancreatic acini [1] = assay: Basal relocation of cortactin and actin in suprastimulated acini (immunofluorescence); format: cell-based, mice; conditions: 10 nM CCK
Experimental: as §1
(§3) Acini were plated on plain glass coverslips as described elsewhere (Torgerson and McNiven, J. Cell Sci., 111 (Pt. 19):2911-22 (1998)), fixed with 2% paraformaldehyde, and permeabilized with 0.6% Triton X-100. The acini were then blocked with 5% normal goat serum followed by incubation with the primary antibodies (4F11 diluted 1/1000, SC-18 diluted 1/300, or anti-Yes diluted 1/1000) for one hour at room temperature followed by washing and incubation with secondary antibodies ( 1/500) with or without rhodamine phalloidin (100 nM) for 30 minutes. The acini were then washed and mounted using Prolong gold. Acini with 6-12 cells were randomly chosen for imaging. The number of blebs was counted along with the number of cells, and expressed as bleb number per 100 cells. The final number expressed as mean±SEM was from at least three different experiments. […]

pancreatic acini [2] = assay: Suprastimulation-induced blebbing of acini (bleb number per 100 cells); format: cell-based, mice; conditions: 10 nM CCK, 94.2±4.1% without inhibitor, mean±SEM
Experimental: as §1, §3

[3] = tested on: suprastimulation-induced pancreatitis; assay: Caerulein-induced pancreatitis in vivo; design: species or system mice
From the text: Male 100-120 gm Sprauge Dawley (Harlan Laboratories, Indianapolis, Ind.) mice that were housed and fed under standard conditions were used. Caerulein, the CCK analog, was obtained from Research Plus (Bayonne, N.J.). Antibodies to phosphotyrosine (4G10) and cortactin (4F11) antibodies were obtained from Upstate (Charlottesville, Va.). Pan Src antibody (SC-18), Fyn (SC-16) and c-Src antibody H-12 were obtained from Santa Cruz (Santa Cruz, Calif.), and active Src (PY416), Yes and Lyn antibodies were obtained from Transduction Labs (Lexington, Ky.). Polyclonal antibody to cortactin (AB3) was produced as described elsewhere (Cao et al., Mol. Cell Biol., 23(6):2162-2170 (2003)). Secondary antibodies for immunofluorescence (Alexa 488 and Alexa 594) and Prolong gold were obtained from Invitrogen Corporation (Carlsbad, Calif.). Secondary antibodies for western blotting (goat anti-rabbit and goat anti-mouse HRP) were obtained from Affinity Bioreagents (Golden, Colo.). Collagenase type IV was obtained from Worthington Biochemical Corporation (Lakewood, N.J.). PP2 and SU6656 were obtained from Calbiochem (San Diego, Calif.) and were dissolved as a 1000× stock in DMSO. All other reagents were purchased from Sigma.
Animals (6 animals in each group) were given a single intraperitoneal injection of saline (control) or caerulein (20 μg/kg) in saline as described elsewhere (Bhagat et al., Gastroenterology, 122(1): 156-165 (2002)). After 6 hours, blood and tissue samples were harvested and frozen or fixed in 4% formaldehyde. When used, PP2 was dissolved in DMSO and given at a dose of 3 mg/kg in a 0.1-mL volume intraperitoneally 30 minutes before caerulein. Animals pretreated with vehicle were given DMSO only.
Five μm sections of paraffin-embedded pancreas and lung were stained with hematoxylin/eosin (H&E). For immunohistochemistry of pancreas, 5 μm sections were made from OCT embedded tissue, fixed with 4% paraformaldehyde, and immunostained as described herein. Serum amylase activity was measured colorimetrically using the Phadebas assay (Pharmacia Diagnostics, Portage, Mich.). Edema was measured by subtracting the dry weight from the wet weight and presented as a percentage of wet weight.
The results reported represent the mean±SEM of values obtained from three or more experiments and compared using Student's t test when the data consisted of only two groups or ANOVA when comparing three or more groups. If ANOVA indicated a significant difference, the data were analyzed by using Tukey's method as a post-hoc test for the difference between groups. A p value of 0.05 was considered significant.

Compound: CC(C)(C)n1nc(-c2ccc(Cl)cc2)c2c(N)ncnc21 [PP2]
- cortactin phosphorylation (Src; acini pre-incubated with PP2 at 20 μM): completely prevented cortactin phosphorylation
- dissociation of the Src-cortactin complex (Src-cortactin complex): prevented
- basal relocation of cortactin and actin (pancreatic acini [1]; PP2 20 μM): prevented this basal relocation of cortactin; also recorded: prevented the basal relocation of cortactin
- blebbing (pancreatic acini [2]; PP2 20 μM): 16.9±6.0%
- cortactin phosphorylation in pancreas in vivo ([3]; 3 mg/kg PP2 intraperitoneally 30 minutes before 20 μg/kg caerulein, preliminary data): adequate to inhibit cortactin phosphorylation
- increase in serum amylase over controls ([3]; PP2 3 mg/kg ip 30 minutes before caerulein 20 μg/kg, 6 hours, CER+Veh 4.8±0.5 fold, p <0.02): 2.4±0.2 fold
- pancreatic edema as measured by water content ([3]; PP2 3 mg/kg ip 30 minutes before caerulein 20 μg/kg, 6 hours, CER+Veh 81.1±0.8%, control 75.1±0.5%, p<0.05): 76.7±0.6%
- morphology of the pancreas (vacuolation, blebbing-like fragmentation, apoptosis, interstitial edema, inflammatory cells; H&E) ([3]; PP2 3 mg/kg ip 30 minutes before caerulein, 6 hours): dramatically prevented these phenomena
- basolateral relocation of actin and cortactin in pancreas cryosections ([3]; PP2 3 mg/kg prophylactically): prevented this basolateral relocation

Compound: CN(C)S(=O)(=O)c1ccc2c(c1)/C(=C/c1cc3c([nH]1)CCCC3)C(=O)N2 [SU6656]
- cortactin phosphorylation (Src; acini pre-incubated with SU6656 at 10 μM): completely prevented cortactin phosphorylation
- basal relocation of cortactin and actin (pancreatic acini [1]; SU6656 10 μM): prevented the basal relocation of cortactin
- blebbing (pancreatic acini [2]; SU6656 10 μM): 21.0±6.0%
